From ChEMBL document CHEMBL1933034, “Synthesis, docking and in vitro antimalarial evaluation of bifunctional hybrids derived from β-lactams and 7-chloroquinoline using click chemistry” (Bioorg Med Chem Lett, 2012)

System: Plasmodium falciparum
Assay: Antimalarial activity against chloroquine-resistant ring stage of Plasmodium falciparum W2 infected in human erythrocytes assessed as inhibition of parasitemia after 48 hrs by FACS analysis
Assay type: functional, organism-based
Settings: W2, 48 h

Work on Cc1ccc(N2C(=O)[C@@H](NCc3cn(-c4ccnc5cc(Cl)ccc45)nn3)[C@H]2/C=C/c2ccccc2)cc1 yielded an IC50 of over 10000 nM.
Work on O=C1[C@@H](NCc2cn(-c3ccnc4cc(Cl)ccc34)nn2)[C@@H](/C=C/c2ccccc2)N1c1ccccc1 yielded an IC50 of 1900 nM.
O=C1[C@@H](NCc2cn(-c3ccnc4cc(Cl)ccc34)nn2)[C@@H](/C=C/c2ccccc2)N1c1ccc(F)cc1 was tested, and the IC50 was over 10000 nM.
O=C1[C@@H](NCc2cn(-c3ccnc4cc(Cl)ccc34)nn2)[C@@H](/C=C/c2ccccc2)N1C1CCCCC1 was tested, and the IC50 was 4300 nM.
O=C1[C@@H](NCc2cn(-c3ccnc4cc(Cl)ccc34)nn2)[C@@H](/C=C/c2ccccc2)N1Cc1ccccc1 was tested, and the IC50 was 5900 nM.
Compound Cc1ccc(N2C(=O)[C@@H](N(Cc3cn(-c4ccnc5cc(Cl)ccc45)nn3)Cc3cn(-c4ccnc5cc(Cl)ccc45)nn3)[C@H]2/C=C/c2ccccc2)cc1 has an IC50 of 1500 nM.
Compound O=C1[C@@H](N(Cc2cn(-c3ccnc4cc(Cl)ccc34)nn2)Cc2cn(-c3ccnc4cc(Cl)ccc34)nn2)[C@@H](/C=C/c2ccccc2)N1c1ccccc1 has an IC50 of 2100 nM.
O=C1[C@@H](N(Cc2cn(-c3ccnc4cc(Cl)ccc34)nn2)Cc2cn(-c3ccnc4cc(Cl)ccc34)nn2)[C@@H](/C=C/c2ccccc2)N1c1ccc(F)cc1 gave an IC50 of 1100 nM.
Work on O=C1[C@@H](N(Cc2cn(-c3ccnc4cc(Cl)ccc34)nn2)Cc2cn(-c3ccnc4cc(Cl)ccc34)nn2)[C@@H](/C=C/c2ccccc2)N1C1CCCCC1 yielded an IC50 of 2800 nM.
O=C1[C@@H](N(Cc2cn(-c3ccnc4cc(Cl)ccc34)nn2)Cc2cn(-c3ccnc4cc(Cl)ccc34)nn2)[C@@H](/C=C/c2ccccc2)N1Cc1ccccc1 gave an IC50 of 2700 nM.
